These results are taken from patent US20240109881A1, “Heteroaryl Compounds as Ligand Directed Degraders of IRAK4” (Bristol-Myers Squibb Company, priority 2022, published 2024).

Structures are written as SMILES.

The experiment addresses T1, IRAK4 (Homo sapiens, UniProt Q9NWZ3).
T1 construct: endogenous in cells; host or cells: THP-1 cells
T1 sequence (Q9NWZ3 1-460): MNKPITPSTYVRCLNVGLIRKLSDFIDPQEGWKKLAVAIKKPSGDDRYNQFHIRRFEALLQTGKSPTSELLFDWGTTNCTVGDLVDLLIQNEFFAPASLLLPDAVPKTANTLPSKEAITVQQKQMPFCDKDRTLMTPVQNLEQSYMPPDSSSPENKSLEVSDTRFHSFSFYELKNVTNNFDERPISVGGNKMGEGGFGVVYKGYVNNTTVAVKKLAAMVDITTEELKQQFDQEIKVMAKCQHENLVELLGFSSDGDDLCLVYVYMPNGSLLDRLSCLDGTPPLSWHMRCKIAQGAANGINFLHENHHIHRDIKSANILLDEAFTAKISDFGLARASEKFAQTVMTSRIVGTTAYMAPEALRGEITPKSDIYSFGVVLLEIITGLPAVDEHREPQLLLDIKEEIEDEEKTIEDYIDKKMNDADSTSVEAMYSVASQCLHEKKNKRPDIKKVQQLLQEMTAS
Briefly: LVL THP1 HTRF (THP1 Homogeneous Time Resolved Fluorescence). The experiment is classed as cell-based. Particulars: THP1 cells, 18 h incubation with compound; for DC50: read-out: LVL THP1 HTRF EC50. In short, it runs like this: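 THP-1 cells in phenol red-free RPMI with 10% FBS were dosed with compound (20 nL in DMSO) for 18 h at 37° C. After 2 h lysis, IRAK4 was detected with anti-IRAK4-d2/anti-IRAK4-K HTRF antibodies for 18 h at room temperature and read at 665/615 nm; a parallel CTG plate was run.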
On the technique in general: In TR-FRET formats the signal depends on donor and acceptor labels being close together.

Take `C[C@H](C#N)Nc1cc(-n2ncc3cc(C#N)cnc32)ncc1-n1cc([C@H]2CC[C@H](CCN3CCN(c4ccc(N5CCC(=O)NC5=O)c(Cl)c4)[C@H](C)C3)CC2)nn1` [P-437]: the “LVL THP1 HTRF YMIN” value stood at 0.0% and the DC50 stood at 0.4 nM.

For the molecule `CC[C@H]1CN(CC[C@H]2CC[C@H](c3cn(-c4cnc(-n5ncc6cc(C#N)cnc65)cc4N[C@H](C)C#N)nn3)CC2)CCN1c1ccc(C2CCC(=O)NC2=O)cc1` (stereo partly shown) [P-442], the “LVL THP1 HTRF YMIN” value was −2.0% and the DC50 is 4.4 nM.

Consider `C[C@H](C#N)Nc1cc(-n2ncc3cc(C#N)cnc32)ncc1-n1cc([C@H]2CC[C@H](CCN3CCN(c4ccc(N5CCC(=O)NC5=O)cc4)C[C@H]3C)CC2)nn1` [P-459], for which the “LVL THP1 HTRF YMIN” value was −0.5% and the DC50 was 2.5 nM.

Consider `C[C@H](C#N)Nc1cc(-n2ncc3cc(C#N)c(N)nc32)ncc1-n1cc([C@H]2CC[C@H](CCN3CCN(c4ccc([C@@]5(C)CCC(=O)NC5=O)cc4)[C@H](C)C3)CC2)nn1` (stereo in doubt) [P-260], for which the “LVL THP1 HTRF YMIN” value amounted to 7.6% and the DC50 turned out to be 17 nM.

For the molecule `C[C@H](C#N)Nc1cc(-n2ncc3cc(C#N)cnc32)ncc1-n1cc([C@H]2CC[C@H](CCN3CC[C@@H](Oc4ccc(N5CCC(=O)NC5=O)cc4)C3)CC2)nn1` [P-458], the “LVL THP1 HTRF YMIN” value is given as 15.0% and the DC50 worked out at 128 nM.

Turning to `C[C@H](C#N)Nc1cc(-n2ncc3cc(C#N)c(N)nc32)ncc1-n1cc(C2CCC(CCN3CCN(c4ccc([C@@]5(C)CCC(=O)NC5=O)cc4)[C@@H](C)C3)CC2)nn1` (stereo partly shown) [P-245], the “LVL THP1 HTRF YMIN” value was found to be 2.6% and the DC50 came to 12 nM.

For the molecule `COc1nc2c(cnn2-c2cc(N[C@H](C)C#N)c(C(=O)N[C@H]3CC[C@H](CCN4CCN(c5ccc(C6CCC(=O)NC6=O)cc5)CC4)CC3)cn2)cc1C#N` (stereo partly shown) [P-184], the “LVL THP1 HTRF YMIN” value is on record as 1.3% and the DC50 turned out to be 51 nM.

For `C[C@H](C#N)Nc1cc(-n2ncc3cc(C#N)cnc32)ncc1-n1cc([C@H]2CC[C@H](CCN3CCC(c4ccc(N5CCC(=O)NC5=O)cc4)C(F)(F)C3)CC2)nn1` (stereo partly shown) [P-401], the “LVL THP1 HTRF YMIN” value is on record as 0.5% and the DC50 came out at 12 nM.

For `Cc1cc(C2CCC(=O)NC2=O)ccc1N1CCN(CC[C@H]2CC[C@H](NC(=O)c3cnc(-n4ncc5cc(C#N)c(N)nc54)cc3N[C@H](C)C#N)CC2)C[C@H]1C` (stereo partly shown) [P-170], the “LVL THP1 HTRF YMIN” value was determined as 0.9% and the DC50 is 14 nM.

Take `C[C@H](C#N)Nc1cc(-n2ncc3cc(C#N)c(N)nc32)ncc1-n1cc([C@H]2CC[C@H](CCN3CCN(c4ccc(N5CCC(=O)NC5=O)cn4)CC3)CC2)nn1` [P-428]: the “LVL THP1 HTRF YMIN” value is listed as −0.6% and the DC50 worked out at 3.2 nM.

`C[C@H](C#N)Nc1cc(-n2ncc3cc(C#N)cnc32)ncc1-n1cc([C@H]2CC[C@H](CCN3CC[C@H]4[C@@H]3CCN4c3ccc([C@@]4(C)CCC(=O)NC4=O)nc3)CC2)nn1` (single isomer, unassigned) [P-286]: the “LVL THP1 HTRF YMIN” value stood at 6.6% and the DC50 was 8.5 nM.

Turning to `C[C@H](C#N)Nc1cc(-n2ncc3cc(C#N)cnc32)ncc1C(=O)N[C@H]1CC[C@H](CCN2CC[C@H]3[C@@H]2CCN3c2ccc(N3CCC(=O)NC3=O)c(F)c2)CC1` [P-481], the “LVL THP1 HTRF YMIN” value is on record as 9.4% and the DC50 came out at 38 nM.

Consider `CC[C@@H]1CN(CC[C@H]2CC[C@H](c3cn(-c4cnc(-n5ncc6cc(C#N)cnc65)cc4N[C@H](C)C#N)nn3)CC2)CCN1c1ccc(N2CCC(=O)NC2=O)cc1` [P-441], for which the “LVL THP1 HTRF YMIN” value is listed as −0.1% and the DC50 came out at 2.6 nM.

For the molecule `C[C@H](C#N)Nc1cc(-n2ncc3cc(C#N)cnc32)ncc1-n1cc([C@H]2CC[C@H](CCN3CC(Oc4ccc(N5CCC(=O)NC5=O)cc4)C3)CC2)nn1` [P-324], the “LVL THP1 HTRF YMIN” value is given as 107.9% and the DC50 was determined as 1000 nM.

With `C[C@H](C#N)Nc1cc(-n2ncc3cc(C#N)cnc32)ncc1-n1cc([C@H]2CC[C@H](CCN3CC[C@H]4[C@@H]3CCN4c3ccc([C@@]4(C)CCC(=O)NC4=O)nc3)CC2)nn1` (single isomer, unassigned) [P-288], the “LVL THP1 HTRF YMIN” value is listed as 4.7% and the DC50 was found to be 7.1 nM.

Turning to `C[C@H](C#N)Nc1cc(-n2ncc3cc(C#N)cnc32)ncc1-n1cc([C@H]2CC[C@H](CCN3C[C@@H]4CN(c5ccc(N6CCC(=O)NC6=O)cc5)C[C@@H]4C3)CC2)nn1` (single isomer, unassigned) [P-323], the “LVL THP1 HTRF YMIN” value was 12.0% and the DC50 turned out to be 96.7 nM.

In the case of `C[C@H](C#N)Nc1cc(-n2ncc3cc(C#N)cnc32)ncc1-n1cc([C@H]2CC[C@H](CCN3CCN(c4ccc(N5CCC(=O)NC5=O)nc4)CC3)CC2)nn1` [P-370], the “LVL THP1 HTRF YMIN” value is 1.2% and the DC50 was 30.5 nM.

Regarding `C[C@H](C#N)Nc1cc(-n2ncc3cc(C#N)c(N)nc32)ncc1-n1cc(C2CCC(CCN3CCN(c4ccc(C5CCC(=O)NC5=O)cc4)[C@H](C)C3)CC2)nn1` (stereo partly shown) [P-216], the “LVL THP1 HTRF YMIN” value was 1. % and the DC50 was determined as 1 nM.

For `C[C@H](C#N)Nc1cc(-n2ncc3cc(C#N)cnc32)ncc1-n1cc(C2CCC(CCN3CCN(c4ccc(C5CCC(=O)NC5=O)cc4)C4COCC43)CC2)nn1` (single isomer, unassigned) [P-235], the “LVL THP1 HTRF YMIN” value came to 2.6% and the DC50 came out at 29 nM.

Take `C[C@H](C#N)Nc1cc(-n2ncc3cc(C#N)cnc32)ncc1-n1cc(C2CCC(CCN3C[C@H](C)N(c4ccc(C5CCC(=O)NC5=O)cc4)C[C@H]3C)CC2)nn1` (stereo partly shown) [P-206]: the “LVL THP1 HTRF YMIN” value is recorded as 1.1% and the DC50 came out at 2 nM.

For the molecule `C[C@H](C#N)Nc1cc(-n2ncc3cc(C#N)cnc32)ncc1-n1cc([C@H]2CC[C@H](CCN3CCC(n4cc(NC5CCC(=O)NC5=O)cn4)CC3)CC2)nn1` (stereo partly shown) [P-348], the “LVL THP1 HTRF YMIN” value came out at 13.1% and the DC50 was determined as 94.9 nM.

With `C[C@H](C#N)Nc1cc(-n2ncc3cc(C#N)cnc32)ncc1C(=O)N[C@H]1CC[C@H](CCN2CC3CC2CN3c2ccc(C3CCC(=O)NC3=O)cc2)CC1` (stereo partly shown) [P-179], the “LVL THP1 HTRF YMIN” value is recorded as 2.0% and the DC50 worked out at 65 nM.

`C[C@H](C#N)Nc1cc(-n2ncc3cc(C#N)c(N)nc32)ncc1C(=O)N[C@H]1CC[C@H](CCN2CCN(c3ccc(C4CCC(=O)NC4=O)c(F)c3)[C@H](C)C2)CC1` (stereo partly shown) [P-173]: the “LVL THP1 HTRF YMIN” value is given as 0.7% and the DC50 turned out to be 11 nM.

In the case of `C[C@H](C#N)Nc1cc(-n2ncc3cc(C#N)c(N)nc32)ncc1-n1cc([C@H]2CC[C@H](CCN3CCN(c4cnc([C@@]5(C)CCC(=O)NC5=O)cn4)CC3)CC2)nn1` (single isomer, unassigned) [P-267], the “LVL THP1 HTRF YMIN” value worked out at 54.7% and the DC50 is 94.7 nM.

For `C[C@H](C#N)Nc1cc(-n2ncc3cc(C#N)cnc32)ncc1-n1cc([C@H]2CC[C@H](CCN3CC[C@H]4[C@@H]3CCN4c3ccc([C@@]4(C)CCC(=O)NC4=O)cn3)CC2)nn1` (single isomer, unassigned) [P-313], the “LVL THP1 HTRF YMIN” value is 44.9% and the DC50 came out at 244 nM.

On to `C[C@H](C#N)Nc1cc(-n2ncc3cc(C#N)cnc32)ncc1-n1cc(C2CCC(N3CCN(c4ccc(N5CCC(=O)NC5=O)cc4)CC3)CC2)nn1` (stereo partly drawn) [P-499, 1-(4-(((R)-1-cyanoethyl)amino)-5-(4-(4-(4-(4-(2,4-dioxotetrahydropyrimidin-1(2H)-yl)phenyl)piperazin-1-yl)cyclohexyl)-1H-1,2,3-triazol-1-yl)pyridin-2-yl)-1H-pyrazolo[3,4-b]pyridine-5-carbonitrile], for which the “LVL THP1 HTRF YMIN” value was determined as 13.6% and the DC50 amounted to 172 nM.

For the molecule `C[C@H](C#N)Nc1cc(-n2ncc3cc(C#N)c(N)nc32)ncc1-n1cc([C@H]2CC[C@H](CCN3CCN(c4cnc([C@@]5(C)CCC(=O)NC5=O)nc4)CC3)CC2)nn1` (single isomer, unassigned) [P-264], the “LVL THP1 HTRF YMIN” value is given as 94.6% and the DC50 came out at 7.2 nM.

With `C[C@H](C#N)Nc1cc(-n2ncc3cc(C#N)cnc32)ncc1-n1cc([C@H]2CC[C@H](CCN3CCC(c4ccc([C@@]5(F)CCC(=O)NC5=O)cc4)CC3)CC2)nn1` (single isomer, unassigned) [P-338], the “LVL THP1 HTRF YMIN” value was determined as 61.2% and the DC50 came out at 501 nM.

Regarding `C[C@H](C#N)Nc1cc(-n2ncc3cc(C#N)cnc32)ncc1-n1cc([C@H]2CC[C@H](CCN3CCN(c4cccc5c(N6CCC(=O)NC6=O)cncc45)CC3)CC2)nn1` [P-361], the “LVL THP1 HTRF YMIN” value came to 1.2% and the DC50 is 5 nM.

As to `N#Cc1cnc2c(cnn2-c2cc(OCC3CCOCC3)c(-n3cc([C@H]4CC[C@H](CCN5CCN(c6ccc(C7CCC(=O)NC7=O)cc6)CC5)CC4)nn3)cn2)c1` (stereo partly shown) [P-411], the “LVL THP1 HTRF YMIN” value amounted to 90.4% and the DC50 worked out at 1000 nM.

Regarding `CNc1nc2c(cnn2-c2cc(N[C@H](C)C#N)c(C(=O)N[C@H]3CC[C@H](CCN4CCN(c5ccc(C6CCC(=O)NC6=O)cc5)CC4)CC3)cn2)cc1C#N` (stereo partly shown) [P-188], the “LVL THP1 HTRF YMIN” value was 1.1% and the DC50 came out at 6 nM.

As for `C[C@H](C#N)Nc1cc(-n2ncc3cc(C#N)cnc32)ncc1-n1cc([C@H]2CC[C@H](CCN3C[C@@H]4CN(c5ccc([C@@]6(C)CCC(=O)NC6=O)cc5)C[C@@H]4C3)CC2)nn1` (single isomer, unassigned) [P-281], the “LVL THP1 HTRF YMIN” value was 24.0% and the DC50 was 106 nM.
